Results: US6355799B1, “Substituted benzene compounds, process for their preparation, and herbicidal and defoliant compositions containing them” (ISK Americas Incorporated, priority 1997, dated 2002)

Tests used:
Assay type in all cases: in vivo
[1] = tested on: upland rice (Oryza sp., var. Tebonnet, RICE); test: Post-emerge test, crop safety; conditions: post-emerge, 14 days after application, rating scale 0-100
From the text: (§1) A standard greenhouse herbicide activity screening system was used to evaluate the herbicidal efficacy and crop safety of these test compounds. Seven broadleaf weed species including redroot pigweed (Amaranthus retroflexus, AMARE, velvetleaf (Abutilon theophrasti, ABUTH), sicklepod (Cassia obtusifolia, CASOB), ivyleaf morningglory (Ipomoea hederacea, IPOHE), lambsquarters (Chenopodium album, CHEAL), common ragweed (Ambrosia artemisizfolia L., AMBEL), and cocklebur (Xanthium strumarium, XANST) were used as test species. Four grass weed species including green foxtail (Setaria viridis, SETVI), barnyardgrass (Echinochloa crus-galli, ECHCG), johnsongrass (Sorghum halepense, SORHA), and large crabgrass (Digitaria sanguinalis, DIGSA) were also used. In addition, three crop species, field corn (Zea mays L., var. Dekalb 535, CORN), soybean (Glycine max L., var. Pella 86, SOY), and is upland rice (Oryza sp., var. Tebonnet, RICE) were included.
(§2) All plants were grown in 10 cm square plastic pots which were filled with a sandy loam soil mix. For pre-emerge tests, seeds were planted one day prior to application of the test compounds. For post-emerge tests, seeds were planted 8-21 days prior to the test to allow emergence and good foliage development prior to application of the test substances. At the time of the post-emerge application, plants of all species were usually at the 2-3 leaf stage of development.
(§3) All test compounds Were dissolved in acetone and applied to the test units in a volume of 187 l /ha. Test materials were applied at rates ranging from 15 g ai/ha to 1000 g ai/ha using a track sprayer equipped with a TJ8001E even flow flat fan spray nozzle. Plants were arranged on a shelf so that the top of the canopy (post-emerge) or top of the soil surface (pre-emerge) was 40-45 cm below the nozzle. Pressurized air was used to force the test solution through the nozzle as it was mechanically advanced (via electrically driven chain drive) over the top of all test plants/pots. This application simulates a typical commercial field herbicide application.
(§4) In the post-emerge test, a commercial non-ionic surfactant was also included (0.25% v/v) to enhance wetting of the leaf surfaces of target plants. Immediately after application, test units of the pre-emerge applications were watered at the soil surface to incorporate the test materials. Subsequently, these test units were bottom-watered. Post-emerge test units were always bottom-watered.
(§5) At 14 days after application of the test materials, phytotoxicity ratings were recorded. A rating scale of 0-100 was used as previously described in Research Methods in Weed Science, 2nd edition, B. Truelove, Ed., Southern Weed Science Society, Auburn University, Auburn, Ala. 1977. Briefly, “0” corresponds to no damage and “100” corresponds to complete death of all plants in the test unit. This scale was used both to determine efficacy against weed species and damage to crop species. Herbicide activity data for various compounds of this invention, which are shown by compound No. in Tables 1-8, are shown in Tables 11 and 12.

[2] = tested on: field corn (Zea mays L., var. Dekalb 535, CORN); test: Post-emerge test, crop safety; conditions: post-emerge, 14 days after application, rating scale 0-100
From the text: as §1, §2, §3, §4, §5

[3] = tested on: redroot pigweed (Amaranthus retroflexus, AMARE); test: Post-emerge test, greenhouse herbicide activity screening; conditions: post-emerge, 14 days after application
From the text: as §1, §2, §3, §4, §5

[4] = tested on: barnyardgrass (Echinochloa crus-galli, ECHCG); test: as above; conditions: post-emerge, 14 days after application, rating scale 0-100
From the text: as §1, §2, §3, §4, §5

[5] = tested on: ivyleaf morningglory (Ipomoea hederacea, IPOHE); test: as above; conditions: post-emerge, 14 days after application, rating scale 0-100
From the text: as §1, §2, §3, §4, §5

[6] = tested on: velvetleaf (Abutilon theophrasti, ABUTH); test: as above; conditions: post-emerge, 14 days after application, rating scale 0-100
From the text: as §1, §2, §3, §4, §5

[7] = tested on: large crabgrass (Digitaria sanguinalis, DIGSA); test: as above; conditions: post-emerge, 14 days after application, rating scale 0-100
From the text: as §1, §2, §3, §4, §5

[8] = tested on: sicklepod (Cassia obtusifolia, CASOB); test: as above; conditions: post-emerge, 14 days after application, rating scale 0-100
From the text: as §1, §2, §3, §4, §5

[9] = tested on: lambsquarters (Chenopodium album, CHEAL); test: as above; conditions: post-emerge, 14 days after application, rating scale 0-100
From the text: as §1, §2, §3, §4, §5

[10] = tested on: green foxtail (Setaria viridis, SETVI); test: as above; conditions: post-emerge, 14 days after application, rating scale 0-100
From the text: as §1, §2, §3, §4, §5

[11] = tested on: redroot pigweed (Amaranthus retroflexus, AMARE); test: Pre-emerge test, greenhouse herbicide activity screening; conditions: phytotoxicity rating 0-100, 14 days after application
From the text: as §1, §2
as §3, with “Test materials were applied at rates ranging from 15 g ai/ha to 1000 g ai/ha using a track sprayer equipped with a TJ8001E even flow flat fan spray nozzle.” left out
as §4, §5

[12] = tested on: barnyardgrass (Echinochloa crus-galli, ECHCG); test: as above; conditions: phytotoxicity rating 0-100, 14 days after application
From the text: as §1, §2, §3, §4, §5

[13] = tested on: ivyleaf morningglory (Ipomoea hederacea, IPOHE); test: as above; conditions: phytotoxicity rating 0-100, 14 days after application
From the text: as §1, §2, §3, §4, §5

[14] = tested on: velvetleaf (Abutilon theophrasti, ABUTH); test: as above; conditions: phytotoxicity rating 0-100, 14 days after application
From the text: as §1, §2, §3, §4, §5

[15] = tested on: large crabgrass (Digitaria sanguinalis, DIGSA); test: as above; conditions: phytotoxicity rating 0-100, 14 days after application
From the text: as §1, §2, §3, §4, §5

[16] = tested on: sicklepod (Cassia obtusifolia, CASOB); test: as above; conditions: phytotoxicity rating 0-100, 14 days after application
From the text: as §1, §2, §3, §4, §5

[17] = tested on: lambsquarters (Chenopodium album, CHEAL); test: as above; conditions: phytotoxicity rating 0-100, 14 days after application
From the text: as §1, §2, §3, §4, §5

[18] = tested on: green foxtail (Setaria viridis, SETVI); test: as above; conditions: phytotoxicity rating 0-100, 14 days after application
From the text: as §1, §2, §3, §4, §5

[19] = tested on: upland rice (Oryza sp., var. Tebonnet, RICE); test: Pre-emerge test, crop safety; conditions: crop damage rating 0-100, 14 days after application
From the text: as §1, §2, §3, §4, §5

[20] = tested on: field corn (Zea mays L., var. Dekalb 535, CORN); test: Pre-emerge test, crop safety; conditions: crop damage rating 0-100, 14 days after application
From the text: as §1, §2, §3, §4, §5

[21] = 63 g ai/ha, rating scale 0-100 (0 no damage, 100 complete death)
[22] = 250 g ai/ha, rating scale 0-100

Row | Compound | phytotoxicity rating RICE (crop damage) ([1]; 63 g ai/ha) | phytotoxicity rating RICE (crop damage) ([1]; 250 g ai/ha) | phytotoxicity rating CORN (crop damage) ([2]; 63 g ai/ha) | phytotoxicity rating CORN (crop damage) ([2]; 250 g ai/ha) | phytotoxicity rating AMARE [3, 21] | phytotoxicity rating AMARE [3, 22] | phytotoxicity rating ECHCG ([4]; 63 g ai/ha) | phytotoxicity rating ECHCG ([4]; 250 g ai/ha) | phytotoxicity rating IPOHE ([5]; 63 g ai/ha) | phytotoxicity rating IPOHE ([5]; 250 g ai/ha) | phytotoxicity rating ABUTH ([6]; 63 g ai/ha) | phytotoxicity rating ABUTH ([6]; 250 g ai/ha) | phytotoxicity rating DIGSA ([7]; 63 g ai/ha) | phytotoxicity rating DIGSA ([7]; 250 g ai/ha) | phytotoxicity rating CASOB ([8]; 63 g ai/ha) | phytotoxicity rating CASOB ([8]; 250 g ai/ha) | phytotoxicity rating CHEAL ([9]; 63 g ai/ha) | phytotoxicity rating CHEAL ([9]; 250 g ai/ha) | phytotoxicity rating SETVI ([10]; 63 g ai/ha) | phytotoxicity rating SETVI ([10]; 250 g ai/ha) | also measured
1 | COc1c(Cl)cc(F)c(-n2c(=O)cc(C(F)(F)F)n(C)c2=O)c1NC(=O)OCc1ccc2c(c1)OCO2 [4-41] | 50 | 85 | 75 | 90 | 100 | 100 | 80 | 90 | 100 | 100 | 100 | 100 | 90 | 100 | 100 | 100 | 100 | 100 | 95 | 95 | Pre-emerge Herbicidal Activity AMARE ([11]; 63 g ai/ha): 100; Pre-emerge Herbicidal Activity AMARE ([11]; 250 g ai/ha): 100; Pre-emerge Herbicidal Activity ECHCG ([12]; 63 g ai/ha): 80; Pre-emerge Herbicidal Activity ECHCG ([12]; 250 g ai/ha): 90; Pre-emerge Herbicidal Activity IPOHE ([13]; 63 g ai/ha): 100; Pre-emerge Herbicidal Activity IPOHE ([13]; 250 g ai/ha): 100; Pre-emerge Herbicidal Activity ABUTH ([14]; 63 g ai/ha): 100; Pre-emerge Herbicidal Activity ABUTH ([14]; 250 g ai/ha): 100; Pre-emerge Herbicidal Activity DIGSA ([15]; 63 g ai/ha): 100; Pre-emerge Herbicidal Activity DIGSA ([15]; 250 g ai/ha): 100; Pre-emerge Herbicidal Activity CASOB ([16]; 63 g ai/ha): 100; Pre-emerge Herbicidal Activity CASOB ([16]; 250 g ai/ha): 100; Pre-emerge Herbicidal Activity CHEAL ([17]; 63 g ai/ha): 100; Pre-emerge Herbicidal Activity CHEAL ([17]; 250 g ai/ha): 100; Pre-emerge Herbicidal Activity SETVI ([18]; 63 g ai/ha): 100; Pre-emerge Herbicidal Activity SETVI ([18]; 250 g ai/ha): 100; Pre-emerge Herbicidal Activity RICE ([19]; 63 g ai/ha): 40; Pre-emerge Herbicidal Activity RICE ([19]; 250 g ai/ha): 80; Pre-emerge Herbicidal Activity CORN ([20]; 63 g ai/ha): 15; Pre-emerge Herbicidal Activity CORN ([20]; 250 g ai/ha): 65
2 | COc1c(Cl)cc(F)c(-n2c(=O)cc(C(F)(F)F)n(C)c2=O)c1NC(=O)OC(C)c1ccccc1 (centres unmarked) [4-47] | 30 | 60 | 30 | 65 | 75 | 95 | 30 | 50 | 85 | 100 | 100 | 10 | 40 | 30 | 100 | 100 | 100 | 100 | 40 | 60 | Pre-emerge Herbicidal Activity AMARE ([11]; 63 g ai/ha): 70; Pre-emerge Herbicidal Activity AMARE ([11]; 250 g ai/ha): 100; Pre-emerge Herbicidal Activity ECHCG ([12]; 63 g ai/ha): 60; Pre-emerge Herbicidal Activity ECHCG ([12]; 250 g ai/ha): 98; Pre-emerge Herbicidal Activity IPOHE ([13]; 63 g ai/ha): 30; Pre-emerge Herbicidal Activity IPOHE ([13]; 250 g ai/ha): 100; Pre-emerge Herbicidal Activity ABUTH ([14]; 63 g ai/ha): 100; Pre-emerge Herbicidal Activity ABUTH ([14]; 250 g ai/ha): 100; Pre-emerge Herbicidal Activity DIGSA ([15]; 63 g ai/ha): 70; Pre-emerge Herbicidal Activity DIGSA ([15]; 250 g ai/ha): 100; Pre-emerge Herbicidal Activity CASOB ([16]; 63 g ai/ha): 0; Pre-emerge Herbicidal Activity CASOB ([16]; 250 g ai/ha): 70; Pre-emerge Herbicidal Activity CHEAL ([17]; 63 g ai/ha): 100; Pre-emerge Herbicidal Activity CHEAL ([17]; 250 g ai/ha): 100; Pre-emerge Herbicidal Activity SETVI ([18]; 63 g ai/ha): 80; Pre-emerge Herbicidal Activity SETVI ([18]; 250 g ai/ha): 100; Pre-emerge Herbicidal Activity RICE ([19]; 63 g ai/ha): 20; Pre-emerge Herbicidal Activity RICE ([19]; 250 g ai/ha): 70; Pre-emerge Herbicidal Activity CORN ([20]; 63 g ai/ha): 30; Pre-emerge Herbicidal Activity CORN ([20]; 250 g ai/ha): 90
